# Experimental data reported in patent US20030129189A1, “Tumor necrosis factor-gamma” (priority 1994, published 2003).
# T1: TNF-gamma-beta (Homo sapiens, UniProt O95150)
# T1 construct: expressed in transfected cells
# T1 sequence (O95150 1-251): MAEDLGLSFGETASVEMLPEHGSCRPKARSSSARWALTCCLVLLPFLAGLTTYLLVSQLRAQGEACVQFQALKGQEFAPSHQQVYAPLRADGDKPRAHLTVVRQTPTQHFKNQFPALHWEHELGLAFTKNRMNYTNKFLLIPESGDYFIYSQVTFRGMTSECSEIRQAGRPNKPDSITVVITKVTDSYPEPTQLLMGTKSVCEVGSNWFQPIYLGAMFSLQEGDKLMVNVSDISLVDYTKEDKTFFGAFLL
# T2: recombinant, untagged TNF-gamma-beta protein (aa 72-251) (human, UniProt O95150 72-251)
# T2 construct: they are put here; also called TL1β; non-tagged TNF-gamma-beta
# T2 sequence: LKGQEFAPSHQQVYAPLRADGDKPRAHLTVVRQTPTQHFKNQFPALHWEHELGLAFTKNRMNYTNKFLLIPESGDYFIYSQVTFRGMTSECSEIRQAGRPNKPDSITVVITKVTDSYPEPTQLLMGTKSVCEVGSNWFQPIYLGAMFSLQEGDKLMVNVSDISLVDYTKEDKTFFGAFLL
# B1: sTNFR1: Mouse soluble TNF receptor 1 from R&D Systems (protein, UniProt P25118 30-212, looked up)
# extracellular domain: LVPSLGDREKRDSLCPQGKYVHSKNNSICCTKCHKGTYLVSDCPSPGRDTVCRECEKGTFTASQNYLRQCLSCKTCRKEMSQVEISPCQADKDTVCGCKENQFQRYLSETHFQCVDCSPCFNGTVTIPCKETQNTVCNCHAGFFLRESECVPCSHCKKNEECMKLCLPPPLANVTNPQDSGTA
# modifications: extracellular domain
# notes: Mouse soluble TNF receptor 1 from R&D Systems
# B2: TR6: non-tagged TNFR-6 alpha (DcR3) decoy receptor protein (protein)
# chain: VAETPTYPWRDAETGERLVCAQCPPGTFVQRPCRRDSPTTCGPCPPRHYTQFWNYLERCRYCNVLCGEREEEARACHATHNRACRCRTGFFAHAGFCLEHASCPPGAGVIAPGTPSQNTQCQPCPPGTFSASSSSSEQCQPHRNCTALGLALNVPGSSSHDTLCTSCTGFPLSTRVPGAEECERAVIDFVAFQDISIKRLQRLLQALEAPEGWGPTPRAGRAALQLKLRRRLTELLGAQDGALLVRLLQALRVARMPGLERSVRERFLPVH
# B3: DR3-Fc (extracellular domain of human DR3, aa 1-199, fused to the Fc domain of human IgG1) (Fc fusion, UniProt Q93038 25-199, looked up)
# chain: QGGTRSPRCDCAGDFHKKIGLFCCRGCPAGHYLKAPCTEPCGNSTCLVCPQDTFLAWENHHNSECARCQACDEQASQVALENCSAVADTRCGCKPGWFVECQVSQCVSSSPFYCQPCLDCGALHRHTRLLCSRRDTDCGTCLPGFYEHGDGCVSCPTSTLGSCPERCAAVCGWRQ
# notes: range 1-199; not shown: Fc domain of human IgG1, fused in-frame to the C-terminus of the receptor part
# B4: HveA-Fc: extracellular domain of HveA (aa 1-192) fused to Fc of human IgG1 (protein)
# chain: LPSCKEDEYPVGSECCPKCSPGYRVKEACGELTGTVCEPCPPGTYIAHLNGLSKCLQCQMCDPAMGLRASRNCSRTENAVCGCSPGHFCIVQDGDHCAACRAYATSSPGQRVQKGGTESQDTLCQNCPPGTFSPNGTLEECQHQTKCSWLVTKA
# modifications: left off: a dimerising Fc or GST
# notes: extracellular domain of HveA (aa 1-192) fused to Fc of human IgG1
# Key:
# [1] = test system: bovine pulmonary artery endothelial cells (BPAEC); test: Endothelial cell apoptosis (morphology, Hoechst staining, DNA fragmentation); format: cell-based
# Protocol: [Bovine pulmonary artery endothelial cells were incubated with various concentrations of TNF-gamma for 48 hours. The apoptosis was assessed by nuclear staining with Hoechst 33342 fluorescence dye (10 mg/ml).] […] [U937 cells were transfected using lipofectamine (following manufacturer's instruction) with 0.2 mg of reporter plasmid (NF-kappaB-SEAP). The transfected U937 cells were collected and added to the 96-well plate ([…]/well) with various concentrated of TNF-gamma. After Incubation at 37° C. for 72 hr, the NF-kappaB activity was measured with luminometer at absorbance of 450 nm.]
# Bovine pulmonary artery endothelia cells (BPAEC) were incubated with various concentrations of TNF-gamma for 48 hours. Apoptosis was assessed morphologically and by nuclear staining with Hoechst 33342 fluorescence dye (10 mg/ml) in triplicate. Live and apoptotic cells were scored in four random fields, about 1,000 cells were counted. The DNA fragmentation was analyzed as described previously.
# BPAEC were obtained from the American Type Culture Collection (Rockville, Md., USA). The cells were grown in DMEM supplemented with 10% heat-inactivated FCS in a humidified environment of 5% CO2/[…] at 37° C. as previously described (Yue, T. L., et al., Mol. Pharmacol. 51:951-962 (1997)). Cells at a subconfluent density were used. Before experiments, the medium was changed to DMEM contained 2% FCS. BPAEC from passages 17-20 were used in all studies.
# To quantify cells undergoing apoptosis, cell monolayers were fixed and stained with Hoechst […] (Molecular probe, Eugene, Oreg., USA) as described previously (Yue, T. L., et al., Mol. Pharmacol. 51:951-962 (1997)). The morphological features of apoptosis (cell shrinkage, chromatin condensation, blebbing, and fragmentation) were monitored by fluorescence microscopy. Transmission electron microscopy study was done as reported previously (Yue, T. L., et al., Mol. Pharmacol. 51:951-962 (1997)).
# DNA ladder: Cells treated with vehicle or TNF-gamma-alpha were lysed in lysis buffer containing 100 mM NaCl, 10 mM Tris-HCl, pH 8.0, 2.5 mM EEDTA, 0.5% SDS, and 100 micrograms/ml […]. The lysates were incubated at 55° C. for 16 h. After incubation, the lysates were gently extracted three times with pheno/chloroform/isoamyl alcohol, precipitated in ethanol, treated with DNAse-free RNAse, re-extracted, and precipitated again as described previously. DNA electrophoresis was carried out in 1.8% agarose gels containing ethidium bromide, and DNA fragmentations were visualized under ultraviolet light.
# In situ end-labeling (TUNEL): BPAEC were cultured in two-chamber slides (Nunc) and treated with TNF-gamma-alpha for 8 to 24 h. In situ detection of apoptotic cells was performed by using terminal deoxyribonucleotide transferase-mediated dUTP nick end labeling with an ApopTag in situ apoptosis detection kit (Oncor) following the manufacturer's recommendation.
# The cells were plated in two-chamber slides. The cells were cotransfected with 0.5 μg/ml of Pegfp-c-1 (Clontech; Li, Y. and Horwitz, M. S. Biotechnology 23:1026-1028) as a fluorescent marker of transfected cells together with 1 μg/ml of either the empty cloning vector pcDNA1 (control) or the dominant-interfering c-Jun mutant pcDNA1-FlagΔ169 (Xia, Z., et al., Science 270:1326-1331 (1995)) using Calphos Maximizer Transfection Kit (Clontech) according to the manufacturer's recommendation. Following transfection, the cells were allowed to recover in complete medium for 24 h. The cells were treated with TNF-gamma-alpha and the number of apoptotic cells was assessed by nuclear staining after fixation as described in Methods.
# [2] = test system: bFGF-induced corneal neovascularization; test: Corneal angiogenic assay; format: in vivo, rat
# From the text: Basic FGF (“bFGF”) has been tested in this corneal angiogenic assay in various research laboratories for a variety of purposes. It has been shown that bFGF can induce significant angiogenesis in corneas (e.g., in rabbits, rats and mice). Based on the previous studies, bFGF was used in our study of TNF-gamma as an angiogenic factor to induce the growth of blood vessels in rat corneas.
# An incision, 1-1.5 mm in length, is made in the center of the cornea with a microsurgery scalpel blade.
# Starting at the incision, a micropocket is created between the collagenous layers of the corneal stroma with a Castroviego cyclodialysis spatula. This pocket extends to a point 1-2 mm from the capillary bed at the corneal-scleral limbus.
# bFGF, which is incorporated 1:1 into non-inflammatory Hydron polymer (available from Interferon Sciences, New Brunswick, N.J.), is implanted into the pocket.
# Five or seven days after corneal implantation, corneal blood perfusion with colloidal carbon is performed. Corneas are then harvested, fixed, flattened, mounted and photographed for morphology.
# An image analysis system (IPLab) is used to quantify the corneal angiogenesis. The corneal surface area, which is covered by the new blood vessels, is quantified and used in our current study. After corneal implantation surgery, TNF-gamma, angiostatin or PBS in a volume of 25 microliters was injected into the conjunctival region adjacent to the implantation site. Based on molarities of TNF-gamma and angiostatin, 10 micrograms of TNF-gamma or 5 micrograms of angiostatin were given respectively four times, once a day, during the first four days post-surgery. TNF-gamma and angiostatin were prepared in PBS.
# bFGF was used to induce neovascularization of the cornea from preexisting pericorneal limbal vessels in two different versions of the assay. First, corneas were surgically implanted with hydrogel plugs containing bFGF. […] In a separate study using an alternate version of this assay, both bFGF and treatment protein were co-administered on a nitrocellulose filter disk implanted within the rat corneal stroma. […] In both assays, the surface area of the angiogenic response was quantitated from digital images of treated corneas five days following implantation.
# TNF-gamma-beta = molecular target: T1, TNF-gamma-beta; test: FACS binding of receptor-Fc proteins to cells expressing full length TNF-gamma-beta
# Protocol: These cells were used to screen the Fc-fusion form of the extracellular domain of TNFR family members, including TNFR1, Fas, HveA, DR3, DR4, DR5, DR6, DcR1, DcR2, TR6, OPG, RANK, AITR, TAC1, CD40, and OX40. […] TR6 has been previously described as a decoy receptor (Pitti et al., Nature 396:699-703 (1998); Yu et al., J. Biol. Chem. 274:13733-6 (1999)) capable of competing with Fas and HveA for binding of FasL and LIGHT, respectively.
# Cells resistant to 0.5 mg/ml Genticin (Invitrogen) were selected and expanded. Expression of TNF-gamma-beta mRNA was confirmed by quantitative RT-PCR analysis and surface expression of TNF-gamma-beta protein confirmed by FACS analyses using TNF-gamma-beta monoclonal antibodies.
# One million cells, in 0.1 ml of FACS buffer (PBS, 0.1% BSA, 0.1% NaN3), were incubated with 0.1-1 microgram of protein or antibody at RT for 15 min. The cells were washed with 3 ml of FACS buffer, reacted with biotinylated primary antibody, and stained with PE-conjugated secondary antibody at RT for 15 min. Cells were then washed again, resuspended in 0.5 microgram/ml of propidium iodide, and live cells were gated and analyzed on a FACScan using the CellQuest software (BD Biosciences).
# [3] = molecular target: T2, recombinant, untagged TNF-gamma-beta …; test: BIAcore 3000, DR3-Fc immobilised on CM5 chip, TNF-gamma-beta in flow, 1:1 model, three batches
# Protocol: TNFR-Fc were covalently immobilized to the BIAcore sensor chip (CM5 chip) via amine groups using N-ethyl-N′-(dimethylaminopropyl) carbodiimide/N-hydroxysuccinimide chemistry. […] The amount of bound protein was determined during washing of the flow cell with HBS buffer (10 mM HEPES, pH 7.4, 150 mM NaCl, 3.4 mM EDTA, 0.005% Surfactant P20). The flow cell surface was regenerated by displacing bound protein by washing with 20 microliters of 10 mM glycine-HCl, pH 2.3. For kinetic analysis, the on and off rates were determined using the kinetic evaluation program in BIAevaluation 3 software using a 1:1 binding model and the global analysis method.
molecule,measurement,setting,value
"C[S+]([O-])c1ccc(-c2nc(-c3ccncc3)c(-c3ccc(F)cc3)[nH]2)cc1 (stereo not drawn) [SB203580, reference compound]",reduction of TNF-gamma-alpha-induced BPAEC apoptosis,[1]; 3 μM,33%
same,reduction of TNF-gamma-alpha-induced BPAEC apoptosis,[1]; 10 μM,51%
ZVAD-fmk [reference compound],effect of caspase inhibitor on TNF-gamma-alpha-induced BPAEC apoptosis,"[1]; added 1 h prior to TNF-gamma-alpha, Ac-YYAD-CHO up to 100 μM",attenuated
angiostatin,angiogenic process in bFGF-implanted corneas,"[2]; bFGF (300 ng) implant, conjunctival injection once a day for four days, 10 micrograms TNF-gamma or 5 micrograms angiostatin, seven days after surgery, vs PBS",significantly slowed down the angiogenic process
same,maximal decrease in rat corneal neovascularization induced by bFGF,[2]; comparison of TNF-gamma-beta and angiostatin,similar
same,vessel growth in PBS-implanted corneas,[2]; multiple conjunctival injections,no obvious vessel growth
B1,effect on TNF-gamma-alpha-induced apoptosis,[1]; BPAEC,Neither sTNFR1 nor sTNFR2 showed effect
same,effect on TNFa-induced apoptosis,"[1]; BPAEC, same condition",reduced by sTNFR1 significantly
B2,competition with DR3-Fc for binding to TNF-gamma-beta expressing cells,TNF-gamma-beta; 2:1 molar ratio of non-tagged TR6 and DR3-Fc,no binding of DR3-Fc was detected
B3,Kd,[3],6.45 nM
same,kon,[3],639000 M⁻¹ s⁻¹
B4,binding to cells expressing TNF-gamma-beta (FACS),TNF-gamma-beta,did not bind
